Data taken from ChEMBL document CHEMBL1147530, “Antimalarial activities of (+)-deoxoartemisitene and its novel C-11, 13 derivatives” (Bioorg Med Chem Lett, 2004).
In brackets after ≈: the same amount, converted by molar mass.

How the values were obtained:
Plasmodium falciparum [1] = assay: In vitro antimalarial activity against chloroquine-sensitive Plasmodium falciparum 3D7; type: functional, organism-based
Plasmodium falciparum [2] = assay: In vitro antimalarial activity against chloroquine-resistant Plasmodium falciparum K1; type: functional, organism-based

| Compound | IC50 (Plasmodium falciparum [1]) | IC50 (Plasmodium falciparum [2]) |
| --- | --- | --- |
| C=C1CO[C@@H]2O[C@]3(C)CC[C@H]4[C@H](C)CC[C@@H]1[C@@]24OO3 | 0.02 µg/mL (≈ 0.0751 µM) | 0.02 µg/mL (≈ 0.0751 µM) |
| C[C@@H]1CC[C@H]2[C@@H](C=O)CO[C@@H]3O[C@]4(C)CC[C@@H]1[C@]32OO4 | 0.12 µg/mL (≈ 0.425 µM) | 3.01 µg/mL (≈ 10.7 µM) |
| C[C@@H]1CC[C@H]2[C@@H](C(=O)O)CO[C@@H]3O[C@]4(C)CC[C@@H]1[C@]32OO4 | 1.09 µg/mL (≈ 3.65 µM) | 0.65 µg/mL (≈ 2.18 µM) |
| C[C@@H]1CC[C@@H]2[C@]34OO[C@@](C)(CC[C@@H]13)O[C@H]4OC[C@]2(C)O | 0.07 µg/mL (≈ 0.246 µM) | 0.05 µg/mL (≈ 0.176 µM) |
| C[C@@H]1CC[C@H]2[C@@H](COC[C@H]3CO[C@@H]4O[C@]5(C)CC[C@H]6[C@H](C)CC[C@@H]3[C@@]46OO5)CO[C@@H]3O[C@@]4(C)CC[C@@H]1[C@]32OO4 | 0.04 µg/mL (≈ 0.0726 µM) | 0.02 µg/mL (≈ 0.0363 µM) |
| C[C@@H]1CC[C@H]2C(=O)CO[C@@H]3O[C@]4(C)CC[C@@H]1[C@]32OO4 | 0.02 µg/mL (≈ 0.0745 µM) | 0.006 µg/mL (≈ 0.0224 µM) |
| C[C@@H]1CC[C@H]2[C@@]3(CO[C@@H]4O[C@]5(C)CC[C@@H]1[C@]42OO5)CO3 | 0.03 µg/mL (≈ 0.106 µM) | 0.01 µg/mL (≈ 0.0354 µM) |
| C[C@@H]1CC[C@H]2[C@H](CO)CO[C@@H]3O[C@]4(C)CC[C@@H]1[C@]32OO4 | 0.06 µg/mL (≈ 0.211 µM) | 0.05 µg/mL (≈ 0.176 µM) |
| C[C@@H]1CC[C@H]2[C@@H](CBr)CO[C@@H]3O[C@]4(C)CC[C@@H]1[C@]32OO4 | 0.01 µg/mL (≈ 0.0288 µM) | 0.003 µg/mL (≈ 0.00864 µM) |
| C[C@@H]1CC[C@H]2[C@@H](COS(C)(=O)=O)CO[C@@H]3O[C@]4(C)CC[C@@H]1[C@]32OO4 | 0.09 µg/mL (≈ 0.248 µM) | 0.06 µg/mL (≈ 0.166 µM) |
| C[C@@H]1CC[C@H]2[C@H](C=O)CO[C@@H]3O[C@]4(C)CC[C@@H]1[C@]32OO4 | 2.02 µg/mL (≈ 7.15 µM) | 0.46 µg/mL (≈ 1.63 µM) |
| C[C@@H]1CC[C@H]2[C@@H](CO)CO[C@@H]3O[C@]4(C)CC[C@@H]1[C@]32OO4 | < 0.0001 µg/mL | 0.0006 µg/mL (≈ 0.00211 µM) |
| Cc1ccc(S(=O)(=O)OC[C@H]2CO[C@@H]3O[C@]4(C)CC[C@H]5[C@H](C)CC[C@@H]2[C@@]35OO4)cc1 | 0.3 µg/mL (≈ 0.684 µM) | 0.05 µg/mL (≈ 0.114 µM) |
| C[C@@H]1CC[C@H]2[C@H](CBr)CO[C@@H]3O[C@]4(C)CC[C@@H]1[C@]32OO4 | 0.0002 µg/mL (≈ 0.000576 µM) | < 0.0001 µg/mL |
| C[C@@H]1CC[C@H]2[C@@H](C)C(=O)O[C@@H]3O[C@@]4(C)CC[C@@H]1[C@]32OO4 [ARTEMISININ] | 0.01 µg/mL (≈ 0.0354 µM) | 0.002 µg/mL (≈ 0.00708 µM) |
| CCO[C@H]1O[C@@H]2O[C@@]3(C)CC[C@H]4[C@H](C)CC[C@@H]([C@H]1C)[C@@]24OO3 [ARTEMOTIL] | < 0.0001 µg/mL | < 0.0001 µg/mL |
| C[C@H]1[C@H](OC(=O)CCC(=O)O)O[C@@H]2O[C@@]3(C)CC[C@H]4[C@H](C)CC[C@@H]1[C@@]24OO3 [ARTESUNATE] | 0.0002 µg/mL (≈ 0.00052 µM) | 0.0006 µg/mL (≈ 0.00156 µM) |
